Data on eleven molecules can be found in PubChem BioAssay (NCI).

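Compound exposure: 48 hours, 5 concentrations, 96-well plates. TGI marks complete inhibition of growth.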

Common to all, as to experiment: growth of human tumour cells (NCI), 48 h
In assay [1] the test system is ACHN renal.
The subject of assay [2] is HOP-62 NSCLC.
In assay [3] the test system is NCI-H23 lung.
For assay [4], the system named is NCI-H522 lung.
Assay [5] concerns OVCAR-3 ovarian.
Assay [6] has as its system OVCAR-4 ovarian.
Assay [7] has as its system RPMI-8226 leukemia.
Assay [8] relates to SK-OV-3 ovarian.
For assay [9], the system named is SW-620 colon.
Assay [10] has as its system UACC-62 melanoma.

Consider `COc1cc(/C=C/C=C2\CC/C(=C\C=C\c3ccc(O)c(OC)c3)C2=O)ccc1O`, for which the TGI was > 100 µM in [1]; > 100 µM in [2]; > 100 µM in assay [3]; 25.9 µM in [4]; > 100 µM in assay [5]; > 100 µM in assay [6]. Also, the TGI in assay [7], in assay [8], in assay [9] and in assay [10] was > 100 µM each time.
For the molecule `O=C(C(Cl)=C(N1CCOCC1)N1CCOCC1)C(Cl)Cl`, the TGI in assay [1], in assay [2], in [3], in assay [4], in assay [5] and in [6] was > 100 µM in each case. Moreover, the TGI in assay [7], in [8], in assay [9] and in [10] was > 100 µM in each case.
With `CC(C)OC(=O)OCSc1ccccc1N=Cc1cccc([N+](=O)[O-])c1`, the TGI in [1], in assay [2], in [3], in [4], in assay [5] and in assay [6] was > 10 µM in each case. Further, the TGI in assay [7], in assay [8], in assay [9] and in [10] was > 10 µM each time.
Consider `Oc1[nH]c2ccccc2c1N=NC(=S)Nc1ccc(Cl)cc1`, for which the TGI in [1], in [2], in [3], in assay [4], in assay [5] and in assay [6] was > 100 µM throughout. Further, the TGI in assay [7], in assay [8], in [9] and in assay [10] was > 100 µM each time.
On to `O=c1[nH]c(Nc2cccc(CO)c2)nc2nc[nH]c12`, for which the TGI in assay [1], in assay [2], in assay [3], in [4], in assay [5] and in assay [6] was > 100 µM throughout. Also, the TGI in assay [7], in assay [8], in assay [9] and in assay [10] was > 100 µM in each case.
`COc1ccc(CC2COc3cc(O)cc(O)c3C2=O)cc1O` (stereo not given): the TGI in [1] was > 100 µM; in [2], > 100 µM; in [3], > 100 µM; in assay [4], > 100 µM; in assay [5], 6.87 µM; in [6] it was > 100 µM. For the same molecule, the TGI in assay [7] is 28.5 µM; in assay [8] it was 38.6 µM; in assay [9], > 100 µM; in assay [10], > 100 µM.
On to `NC(=O)N/N=C1\CC2C3CC4C2C4C13` (stereo not given), for which the TGI in assay [1], in [2], in assay [3], in [4], in assay [5] and in assay [6] was > 100 µM in each case. Also, the TGI in assay [7], in assay [8], in assay [9] and in assay [10] was > 100 µM in each case.
In the case of `O=C(Nc1noc(-c2ccccc2)n1)c1ccccc1CNc1noc(-c2ccccc2)n1`, the TGI in [1], in assay [2], in assay [3], in [4], in assay [5] and in assay [6] was > 100 µM throughout. For the same molecule, the TGI in [7], in [8], in assay [9] and in assay [10] was > 100 µM each time.
Consider `C#CCN(Cc1ccc2nc(OC)c(OC)nc2c1)c1cc(OC)c(OC)c(OC)c1`, for which the TGI is > 100 µM in assay [1]; > 67.9 µM in [2]; 46.2 µM in assay [3]; 36.1 µM in assay [4]; > 100 µM in [5]; > 46.9 µM in assay [6]. In addition, the TGI was 28.3 µM in assay [7], > 100 µM in [8], > 100 µM in [9] and > 97.2 µM in assay [10].
In the case of `CCOC(=O)C(NC(=O)c1nc[nH]c1[N+](=O)[O-])C(C)C` (stereo not given), the TGI in [1], in [2], in assay [3], in assay [4], in [5] and in assay [6] was > 100 µM in each case. Besides, the TGI in assay [7], in assay [8], in assay [9] and in assay [10] was > 100 µM in each case.
Turning to `CC(=O)O[C@H]1CCc2c(cc(N)c3c2C(=O)C[C@]2(C)C([C@H](C)CCCC(C)C)CCC32C)C1(C)C` (stereo not given in full), the TGI in assay [1], in assay [2], in assay [3], in assay [4], in assay [5] and in assay [6] was > 100 µM in each case. Also, the TGI in assay [7], in [8], in assay [9] and in assay [10] was > 100 µM each time.
